Laboratory results published in patent publication US10752613B2, “Compounds and their use for reducing uric acid levels” (Acquist LLC, priority 2016, dated 2020).
Entries after “also recorded” stand apart in the source; their conditions may differ.

Molecular target: xanthine oxidase (Homo sapiens (Human), UniProt P47989)
Assay: Fluorescence-based xanthine oxidase activity assay
Type: biochemical
Details: for IC50: fluorescence-based assay, triplicate, 10 concentrations; for Xanthine oxidase inhibition compared with allopurinol: comparison in words

Chain of xanthine oxidase (P47989 whole entry, species assumed): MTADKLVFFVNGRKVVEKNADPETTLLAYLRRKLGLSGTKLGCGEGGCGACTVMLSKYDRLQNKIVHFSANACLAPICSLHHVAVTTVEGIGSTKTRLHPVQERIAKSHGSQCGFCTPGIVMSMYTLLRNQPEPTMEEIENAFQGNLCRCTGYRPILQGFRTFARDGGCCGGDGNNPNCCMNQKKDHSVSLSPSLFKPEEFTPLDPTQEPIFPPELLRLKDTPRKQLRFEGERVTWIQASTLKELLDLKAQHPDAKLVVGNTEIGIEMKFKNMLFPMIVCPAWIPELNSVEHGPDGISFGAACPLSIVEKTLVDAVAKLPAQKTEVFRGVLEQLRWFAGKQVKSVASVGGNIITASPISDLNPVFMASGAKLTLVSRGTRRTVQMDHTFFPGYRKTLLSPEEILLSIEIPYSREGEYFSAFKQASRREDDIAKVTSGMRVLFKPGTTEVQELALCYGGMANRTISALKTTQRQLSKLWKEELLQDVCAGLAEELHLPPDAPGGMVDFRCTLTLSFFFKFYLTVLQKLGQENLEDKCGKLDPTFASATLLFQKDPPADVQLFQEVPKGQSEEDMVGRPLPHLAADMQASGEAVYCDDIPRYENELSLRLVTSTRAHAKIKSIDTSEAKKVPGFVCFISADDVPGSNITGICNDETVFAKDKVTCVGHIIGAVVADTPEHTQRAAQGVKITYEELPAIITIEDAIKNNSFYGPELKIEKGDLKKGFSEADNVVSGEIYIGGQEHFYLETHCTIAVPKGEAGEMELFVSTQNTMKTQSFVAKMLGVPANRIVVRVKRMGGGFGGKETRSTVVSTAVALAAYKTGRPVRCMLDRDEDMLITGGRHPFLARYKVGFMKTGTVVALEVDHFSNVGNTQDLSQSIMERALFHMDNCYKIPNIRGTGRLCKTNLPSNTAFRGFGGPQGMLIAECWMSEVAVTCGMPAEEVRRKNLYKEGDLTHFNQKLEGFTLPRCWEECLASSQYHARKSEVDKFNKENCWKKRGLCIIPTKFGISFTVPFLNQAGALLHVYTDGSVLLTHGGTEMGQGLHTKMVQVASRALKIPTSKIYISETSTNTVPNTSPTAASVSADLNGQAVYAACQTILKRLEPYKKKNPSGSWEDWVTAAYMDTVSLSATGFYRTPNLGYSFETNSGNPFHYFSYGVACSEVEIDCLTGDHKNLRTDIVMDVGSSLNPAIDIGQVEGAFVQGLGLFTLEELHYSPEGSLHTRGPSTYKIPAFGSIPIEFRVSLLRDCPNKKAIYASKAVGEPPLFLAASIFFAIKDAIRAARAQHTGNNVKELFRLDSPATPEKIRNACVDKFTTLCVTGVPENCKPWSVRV

Row | SMILES | IC50 [µM] | Xanthine oxidase inhibition compared with allopurinol
1 | O=C(Nc1cccc(-c2cn[nH]n2)c1)c1c(O)[nH]c(=O)[nH]c1=O [Formula (Ia), N-(3-(1H-1,2,3-triazol-5-yl)phenyl)-6-hydroxy-2,4-dioxo-1,2,3,4-tetrahydropyrimidine-5-carboxamide] | 6.5 | 
2 | O=C(Nc1ccc(-c2nn[nH]c2-c2ccccc2)cc1)c1c(O)[nH]c(=O)[nH]c1=O [Formula (Ic), 6-hydroxy-2,4-dioxo-N-(4-(4-phenyl-1H-1,2,3-triazol-5-yl)phenyl)-1,2,3,4-tetrahydropyrimidine-5-carboxamide] | 12.2 | 
3 | O=C(Nc1ccc(-c2nc(C(F)(F)F)n[nH]2)cc1)c1c(O)[nH]c(=O)[nH]c1=O [Formula (Ie), 6-hydroxy-2,4-dioxo-N-(4-(3-(trifluoromethyl)-1H-1,2,4-triazol-5-yl)phenyl)-1,2,3,4-tetrahydropyrimidine-5-carboxamide] | 14.5 | 
4 | O=C(Nc1ccc(-c2cn[nH]c2)cc1)c1c(O)[nH]c(=O)[nH]c1=O [Formula (If), N-(4-(1H-pyrazol-4-yl)phenyl)-6-hydroxy-2,4-dioxo-1,2,3,4-tetrahydropyrimidine-5-carboxamide] | 70.1 | 
5 | O=C(Nc1ccc(-c2c[nH]nn2)c(C(F)(F)F)c1)c1c(O)[nH]c(=O)[nH]c1=O [Formula (Ig), N-(4-(1H-1,2,3-triazol-5-yl)-3-(trifluoromethyl)phenyl)-6-hydroxy-2,4-dioxo-1,2,3,4-tetrahydropyrimidine-5-carboxamide] | 2.2 | comparable to allopurinol
6 | O=C(Nc1ccc(-c2c[nH]nn2)cc1C(F)(F)F)c1c(O)[nH]c(=O)[nH]c1=O [Formula (Ih), N-(4-(1H-1,2,3-triazol-5-yl)-2-(trifluoromethyl)phenyl)-6-hydroxy-2,4-dioxo-1,2,3,4-tetrahydropyrimidine-5-carboxamide] | 1.2 | more potent inhibitors of xanthine oxidase than allopurinol; also recorded: comparable to allopurinol
7 | O=C(Nc1ccc(-c2cc(O)n[nH]2)cc1)c1c(O)[nH]c(=O)[nH]c1=O [Formula (Ii), 6-hydroxy-N-(4-(3-hydroxy-1H-pyrazol-5-yl)phenyl)-2,4-dioxo-1,2,3,4-tetrahydropyrimidine-5-carboxamide] | 1.3 | more potent inhibitors of xanthine oxidase than allopurinol
8 | O=C(Nc1ccc(-c2cn[nH]c2C(F)(F)F)cc1)c1c(O)[nH]c(=O)[nH]c1=O [Formula (Ij), 6-hydroxy-2,4-dioxo-N-(4-(5-(trifluoromethyl)-1H-pyrazol-4-yl)phenyl)-1,2,3,4-tetrahydropyrimidine-5-carboxamide] | 16.3 | 
9 | O=C(Nc1ccc(-n2cc(C(F)(F)F)cn2)cc1)c1c(O)[nH]c(=O)[nH]c1=O [Formula (Ik), 6-hydroxy-2,4-dioxo-N-(4-(4-(trifluoromethyl)-1H-pyrazol-1-yl)phenyl)-1,2,3,4-tetrahydropyrimidine-5-carboxamide] | 68 | 
10 | O=C(Nc1ccc(-c2cc(C(F)(F)F)n[nH]2)cc1)c1c(O)[nH]c(=O)[nH]c1=O [Formula (Il), 6-hydroxy-2,4-dioxo-N-(4-(3-(trifluoromethyl)-1H-pyrazol-5-yl)phenyl)-1,2,3,4-tetrahydropyrimidine-5-carboxamide] | 67.9 | 
11 | O=C(Nc1ccc(-c2[nH]ncc2C(F)(F)F)cc1)c1c(O)[nH]c(=O)[nH]c1=O [Formula (Im), 6-hydroxy-2,4-dioxo-N-(4-(4-(trifluoromethyl)-1H-pyrazol-5-yl)phenyl)-1,2,3,4-tetrahydropyrimidine-5-carboxamide] | 25.2 | 
